Test results: patent US4258199A, “Method for preparing cyclic ethers and thioethers including oxygen isomers and sulfur analogs of prostacyclin” (Research Corporation, priority 1978, dated 1981)
Counter-ions that a name gives are not always drawn.

Legend:
[1] = half-life in saline / stability in solution (Table 1); format: physicochemical; settings: 250° C. (so in the source); for half-life: read-out: t 1/2 saline
From the text: The removal of the protecting groups R^1, R^2 and R^3 from the resulting products of the oxidation, i.e, the allylic oxygen cyclic ethers or sulfones or the vinylic sulfoxides, or sulfones, can be carried out with acid or base or sequentially with both, if necessary, and yields prostacyclin isomers and analogs. A particularly useful prostacyclin sulfur analog, 6,9α-thiaprostacyclin ester can be obtained by reducing a 6,9α-sulfoxaprostacyclin ester--obtained as described supra--with a reducing agent such as trimethylsilyliodide.

[2] = tested on: human and rabbit citrated platelet-rich plasma; test: platelet aggregation, citrated platelet-rich plasma in a chronolog aggregometer (agonistic and antagonistic activity vs ADP); format: cell-based; settings: 20 mM and 2 μM (so in the source), inhibition of aggregation by 2 μM ADP, or antagonism of 5 mM prostacyclin
Experimental: Effects of prostacyclin analogs on platelet aggregation was evaluated using human and rabbit citrated platelet-rich plasma in a chronolog aggregometer at […]. Each of the analogs was tested at two concentrations (20 mM and 2 μM) for agonistic activity (inhibition of aggregation induced by 2 μM ADP) and antagonistic activity (prevention of the inhibition of ADP-induced aggregation by 5 mM prostacyclin).

[3] = tested on: cat coronary artery; test: isolated perfused cat coronary artery, perfusion pressure; settings: isolated perfused cat right coronary artery, 37° C., change in perfusion pressure
Experimental: Effects of prostacyclin analogs on isolated perfused cat coronary arteries were measured as follows.
Cats of either sex (2.5-3.5 kg) were anesthetized with sodium pentobarbital (30 mg/kg) given intravenously. Hearts were rapidly excised and placed in oxygenated (95% O2 +5% CO2) ice-cold Krebs-Henseleit (K-H) solution of the following millimolar composition: NaCl, 118; KCl, 4.75; CaCl2.H2 O, 2.54; KH2 PO4, 1.19; MgSO4.7H2 O, 1.19; NaHCO3, 12.5; glucose, 10.00. A 20-gauge stainless steel cannula was inserted into the right coronary artery via the coronary ostium. Distal to the cannula, approximately 1 cm of coronary artery was dissected free of surrounding tissue. The section of right coronary artery with the cannula in place was excised from the heart and immediately transferred to a constant flow perfusion apparatus.
The perfusion apparatus consists of a reservoir containing 20 ml of warm (37° C.) oxygenated (95% O2 +5% CO2) K-H solution which bathes the coronary artery and serves as recirculating perfusate. An increase in perfusion pressure indicates vasoconstriction, whereas a decrease in perfusion pressure signifies vasodilation. Following an initial 1 hr. equilibrium period, vascular responsiveness was established by adding 25 mM KCl. After washing with fresh K-H solution for 20-30 mins., the preparation achieved a relatively constant low basal tone. Basal perfusion pressure averaged 50±2.5 mm Hg. Fresh K-H dilutions of stock prostacyclin analog concentrations were added to the perfusate reservoir in 0.1-0.2 ml volumes. Changes in perfusion pressure in response to prostacyclin analog addition generally plateaus within 5 mins. of administration.

[4] = stability of the sodium salt in solution (preparative examples); format: physicochemical; settings: sodium salt after hydrolysis with NaOH in 90% ethanol
Experimental: Acidification of this compound in aqueous solutions leads to the corresponding acid which can be extracted with ether and purified chromatographically.
The critical intermediate for this synthesis is 11,15-diol, 5-phenylseleno,6,9α-thiaprostacyclin methyl ester IV (R^1 =--CH3, R^2 =R^3 =H, Z=--S--). The preparation of this intermediate is described in Example 10a. When this intermediate was oxidized with 3.3 equivalents of m-chloroperbenzoic acid in methylene chloride -78°→20° C. for 24 hours, the 6,9α-sulfoprostacyclin methyl ester IX was produced in 85% yield (IX, R^1 =--CH3, R^2 =R^3 =H, n=2). It was isolated by prep layer chromatography and hydrolyzed with NaOH in 90% ethanol at 25° C. to afford the corresponding sodium salt IX.

[5] = solubility (analytical data of methyl ester); format: physicochemical
[6] = background statement; cited from earlier work

Compound	t 1/2 saline [1]	Biological Activity: Platelet Aggregation [2]	Biological Activity: Cat Coronary Artery [3]	half-life [1]	also measured
6,9-sulfo-4(E)isoprostacyclin, 6αisomer	> 24 h	Inhibitor	Constrictor(M)		
6,9-sulfo-4(E)isoprostacyclin, 6βisomer	> 24 h	Antagonist	Constrictor		
CCCCCC(O)/C=C/C1C(O)CC2OC(/C=C/CCC(=O)O)CC21 (stereo not drawn) [4(E)-9-deoxy-6,9α-epoxy-Δ^4 -isoprostacyclin(6α)]	> 3 h	Antagonist	Constrictor		
CCCCCC(O)/C=C/C1C(O)CC2OC(/C=C/CCC(=O)O)CC21 (stereo not drawn) [4(E)-9-deoxy-6,9α-epoxy-Δ^4 -isoprostacyclin(6β)]	> 3 h	Inhibitor(P)	Constrictor(P)		
CCCCC[C@H](O)/C=C/[C@@H]1[C@H]2C/C(=C/CCCC(=O)O)S(=O)(=O)[C@H]2C[C@H]1O [5(Z)-6,9α-sulfoprostacyclin sodium salt]					stability of sodium salt in solution [4]: quantitatively stable in aqueous solution
CCCCC[C@H](O)/C=C/[C@@H]1[C@H]2C/C(=C/CCCC(=O)O)[S+]([O-])[C@H]2C[C@H]1O (stereo partly drawn) [5(Z)-6,9α-sulfoxaprostacyclin sodium salt]					stability of sodium salt in solution [4]: stable solution
CCCCC[C@H](O)/C=C/[C@@H]1[C@H]2CC(/C=C/CCC(=O)OC)S(=O)(=O)[C@H]2C[C@H]1O (stereo partly shown) [6,9-sulfo-4(E) is oprostacyclin methyl ester]					solubility [5]: CH2 Cl2 and common organic solvents
CCCCC[C@H](O)/C=C/[C@@H]1[C@H]2C/C(=C/CCCC(=O)O)S(=O)(=O)[C@H]2C[C@H]1O [6,9-sulfo-5(Z)prostacyclin]		Antagonist(M)	Constrictor(M)	> 24 h	
CCCCC[C@H](O)/C=C/[C@@H]1[C@H]2C/C(=C\CCCC(=O)O)[S+]([O-])[C@H]2C[C@H]1O (stereo partly shown) [6,9-sulfoxa-5(E)prostacyclin]		Little activity	Little activity	> 24 h	
CCCCC[C@H](O)/C=C/[C@@H]1[C@H]2C/C(=C/CCCC(=O)O)[S+]([O-])[C@H]2C[C@H]1O (stereo partly shown) [6,9-sulfoxa-5(Z)prostacyclin]		Little activity	Little activity	> 24 h	
CCCCC[C@H](O)/C=C/[C@@H]1[C@H]2C/C(=C/CCCC(=O)O)S[C@H]2C[C@H]1O [6,9α-Thia-5(Z)prostacyclin]		Very little activity, if any	Very little activity, if any	> 3 h	
CCCCC[C@H](O)/C=C/[C@@H]1[C@H]2C/C(=C/CCCC(=O)OC)S(=O)(=O)[C@H]2C[C@H]1O [6,9α-sulfoprostacyclin methyl ester]					solubility [5]: common organic solvents
CCCCC[C@H](O)/C=C/[C@@H]1[C@H]2C/C(=C/CCCC(=O)O)O[C@H]2C[C@H]1O [Natural Prostacyclin, 6,9α-oxido-11α,15α-dihydroxyprosta-(Z)5, (E)13-dienoic acid, reference compound]		Inhibitor(P)	Dilator(P)		biological half-life [6]: 2 minutes
